Values quoted from earlier work, collected in patent publication US11731951B1, “Water reactivity with natural products” (King Faisal University, priority 2023, dated 2023).

Test system: Gram-positive bacteria, including multi-resistant and vancomycin-resistant strains
Settings: from "Abyssomicins—A 20-Year Retrospective View"

| Structure (SMILES) | antibiotic activity |
| --- | --- |
| C[C@@H]1C[C@H](C)C(=O)/C=C/C2[C@@H](O)[C@H]3OC4=C(C(=O)O[C@@]42C[C@H]3C)C1=O [abyssomicin C] | high antibiotic activity |
| CC1CC(C)C(=O)C2=C3OC4C(C)CC3(OC2=O)C(/C=C\C1=O)C4O (centres unmarked) [atrop-abyssomicin C] | high antibiotic activity |
